From patent US20230085307A1, “PYRIDAZINONE COMPOUND AND HERBICIDE” (NISSAN CHEMICAL CORPORATION, priority 2019, published 2023)

Columns and labels:
[1] = test system: late watergrass; test: Test Example 1: herbicidal activity, application before weed generation under submerged conditions (Table 16, symbol A); assay type: in vivo, late watergrass (Echinochloa oryzicola); conditions: 320 g/ha applied herbicide
How it was run: (§1)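 Emulsion formulation, water-diluted to set dose, was put onto the flooded surface (4 cm depth, alluvial soil) the same day weeds were sown and 2.5-leaf rice transplanted. After 3 weeks at 25-30 °C under glass, each species was rated 0 (≤5% kill) to 5 (≥90% kill).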

[2] = test system: Japanese bulrush; test: Test Example 1: herbicidal activity, application before weed generation under submerged conditions (Table 16, symbol B); assay type: in vivo, Japanese bulrush (Schoenoplectus juncoides); conditions: 320 g/ha applied herbicide
How it was run: as §1

[3] = test system: oval-leafed pondweed; test: Test Example 1: herbicidal activity, application before weed generation under submerged conditions (Table 16, symbol C); assay type: in vivo, oval-leafed pondweed (Monochoria vaginalis); conditions: 320 g/ha applied herbicide
How it was run: as §1

[4] = test system: oval-leafed pondweed; test: Test Example 2: herbicidal activity, application during weed generation under submerged conditions (Table 17, symbol C); assay type: in vivo, oval-leafed pondweed (Monochoria vaginalis); conditions: AAH 320 g/ha; application during weed generation, submerged conditions
How it was run: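 Herbicide emulsion, diluted with water to the chosen amount, is applied onto 4 cm floodwater over alluvial soil where the weeds were co-sown and raised at 25–30° C. Application timing: 1–2 leaves. Assessment: three weeks afterwards.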

[5] = test system: Chinese sprangletop; test: Test Example 3: herbicidal effect by foliage application, Wagner pot (Table 18, symbol D); assay type: in vivo, chinese sprangletop (Leptochloa chinensis); conditions: for herbicidal effect on D: Chinese sprangletop: amount of applied herbicide 320 g/ha
How it was run: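 Plants were sown in alluvial soil held under 0.1–0.5 cm standing water and grown 14 days in a greenhouse at 25–30 °C. An emulsifiable formulation, water-diluted to the set dose, was then sprayed onto the foliage, and effects were scored three weeks later using previously defined criteria.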

[6] = test system: blackgrass; test: Test Example 4: herbicidal effect by soil treatment (Table 19, symbol J); assay type: in vivo, blackgrass (Alopecurus myosuroides); conditions: amount of applied herbicide 320 g/ha
How it was run: (§2)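 Applied as a water-diluted emulsion, the compound was sprayed onto soil covering newly sown seeds. Evaluation came three weeks after application, in a greenhouse held at 25° C. to 30° C.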

[7] = test system: windgrass; test: Test Example 4: herbicidal effect by soil treatment (Table 19, symbol L); assay type: in vivo, windgrass (Apera spica-venti); conditions: amount of applied herbicide 320 g/ha
How it was run: as §2

[8] = test system: false cleavers; test: Test Example 4: herbicidal effect by soil treatment (Table 19, symbol Q); assay type: in vivo, false cleavers (Galium spurium); conditions: amount of applied herbicide 320 g/ha
How it was run: as §2

[9] = test system: southern crabgrass; test: Test Example 5: herbicidal effect by foliage application, plastic box (Table 20, symbol F); assay type: in vivo, southern crabgrass (Digitaria ciliaris); conditions: foliage application, AAH 320 g/ha; for F: southern crabgrass, herbicidal effect (criteria 0-5): evaluated three weeks after application
How it was run: (§3)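 Sow seeds spot-wise in sterilized diluvial soil; cover with ~1.5 cm soil. Grow 14 days in greenhouse, 25° C. to 30° C. Spray foliage with emulsion diluted to predetermined amount. Rate effect after 3 weeks.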

[10] = test system: barnyard grass; test: Test Example 5: herbicidal effect by foliage application, plastic box (Table 20, symbol H); assay type: in vivo, barnyard grass (Echinochloa crus-galli); conditions: foliage application, AAH 320 g/ha; for H: barnyard grass, herbicidal effect (criteria 0-5): evaluated three weeks after application
How it was run: as §3

[11] = test system: lambsquarters; test: Test Example 5: herbicidal effect by foliage application, plastic box (Table 20, symbol O); assay type: in vivo, lambsquarters (Chenopodium album); conditions: foliage application, AAH 320 g/ha; for O: lambsquarters, herbicidal effect (criteria 0-5): evaluated three weeks after application
How it was run: as §3

[12] = test system: persian speedwell; test: Test Example 4: herbicidal effect by soil treatment (Table 19, symbol R); assay type: in vivo, Persian speedwell (Veronica persica); conditions: amount of applied herbicide 320 g/ha
How it was run: as §2

| Structure (SMILES) | Herbicidal effect on A: late watergrass (grade 0-5) [1] | Herbicidal effect on B: Japanese bulrush (grade 0-5) [2] | Herbicidal effect on C: oval-leafed pondweed (grade 0-5) [3] | herbicidal effect rating, C: oval-leafed pondweed [4] | herbicidal effect on D (Chinese sprangletop), rating 0-5 ([5]; 320 g/ha) | herbicidal effect rating, J: blackgrass [6] | herbicidal effect rating, L: windgrass [7] | herbicidal effect rating, Q: false cleavers [8] | F: southern crabgrass, herbicidal effect ([9]; three weeks after application) | H: barnyard grass, herbicidal effect ([10]; three weeks after application) | O: lambsquarters, herbicidal effect ([11]; three weeks after application) | herbicidal effect on D: Chinese sprangletop [5] | herbicidal effect on J: blackgrass [6] | herbicidal effect on L: windgrass [7] | herbicidal effect on R: persian speedwell [12] | F: southern crabgrass, herbicidal effect (criteria 0-5) [9] | H: barnyard grass, herbicidal effect (criteria 0-5) [10] | O: lambsquarters, herbicidal effect (criteria 0-5) [11] |
| --- | --- | --- | --- | --- | --- | --- | --- | --- | --- | --- | --- | --- | --- | --- | --- | --- | --- | --- |
| Cc1nn(C)c(=O)c(-c2c(-c3ccc4c(c3)OCCO4)sc3ccccc23)c1O [1-089] | 5 (Herbicidal rate of 90% or more (almost completely withered)) | 4 (Herbicidal rate of 70% or more and less than 90%) | 4 (Herbicidal rate of 70% or more and less than 90%) | 1 (Herbicidal rate of 5% or more and less than 20%) | 0 (Herbicidal rate of 5% or less (almost no effect)) | 0 (Herbicidal rate of 5% or less (almost no effect)) | 0 (Herbicidal rate of 5% or less (almost no effect)) | 5 (Herbicidal rate of 90% or more (almost completely withered)) | 4 (Herbicidal rate of 70% or more and less than 90%) | 5 (Herbicidal rate of 90% or more (almost completely withered)) | 3 (Herbicidal rate of 40% or more and less than 70%) |  |  |  |  |  |  |  |
| Cc1ccccc1C(=O)Oc1c(C)nn(C)c(=O)c1-c1c(-c2ccc(OC(F)F)cc2)sc2ccc(F)cc12 [2-285] | 5 (Herbicidal rate of 90% or more (almost completely withered)) | 3 (Herbicidal rate of 40% or more and less than 70%) | 0 (Herbicidal rate of 5% or less (almost no effect)) | 0 (Herbicidal rate of 5% or less (almost no effect)) |  |  |  |  |  |  |  | 3 (Herbicidal rate of 40% or more and less than 70%) | 0 (Herbicidal rate of 5% or less (almost no effect)) | 0 (Herbicidal rate of 5% or less (almost no effect)) | 3 (Herbicidal rate of 40% or more and less than 70%) | 1 (Herbicidal rate of 5% or more and less than 20%) | 4 (Herbicidal rate of 70% or more and less than 90%) | 5 (Herbicidal rate of 90% or more (almost completely withered)) |
| C#CCSCc1ccc(-c2sc3ccc(F)cc3c2-c2c(O)c(C)nn(C)c2=O)cc1 [2-325] | 3 (Herbicidal rate of 40% or more and less than 70%) | 2 (Herbicidal rate of 20% or more and less than 40%) | 0 (Herbicidal rate of 5% or less (almost no effect)) | 0 (Herbicidal rate of 5% or less (almost no effect)) |  |  |  |  |  |  |  | 3 (Herbicidal rate of 40% or more and less than 70%) | 0 (Herbicidal rate of 5% or less (almost no effect)) | 0 (Herbicidal rate of 5% or less (almost no effect)) | 5 (Herbicidal rate of 90% or more (almost completely withered)) | 5 (Herbicidal rate of 90% or more (almost completely withered)) | 5 (Herbicidal rate of 90% or more (almost completely withered)) | 5 (Herbicidal rate of 90% or more (almost completely withered)) |
| Cc1nn(C)c(=O)c(-c2c(-c3ccc(C#N)cc3)sc3ccc(F)cc23)c1O [2-340] | 5 (Herbicidal rate of 90% or more (almost completely withered)) | 5 (Herbicidal rate of 90% or more (almost completely withered)) | 4 (Herbicidal rate of 70% or more and less than 90%) | 3 (Herbicidal rate of 40% or more and less than 70%) |  |  |  |  |  |  |  | 5 (Herbicidal rate of 90% or more (almost completely withered)) | 3 (Herbicidal rate of 40% or more and less than 70%) | 4 (Herbicidal rate of 70% or more and less than 90%) | 5 (Herbicidal rate of 90% or more (almost completely withered)) | 5 (Herbicidal rate of 90% or more (almost completely withered)) | 5 (Herbicidal rate of 90% or more (almost completely withered)) | 5 (Herbicidal rate of 90% or more (almost completely withered)) |
| CCCC(=O)Oc1c(C)nn(C)c(=O)c1-c1c(-c2ccc(F)c(F)c2)sc2ccc(F)cc12 [2-345] | 4 (Herbicidal rate of 70% or more and less than 90%) | 4 (Herbicidal rate of 70% or more and less than 90%) | 3 (Herbicidal rate of 40% or more and less than 70%) | 4 (Herbicidal rate of 70% or more and less than 90%) |  |  |  |  |  |  |  | 5 (Herbicidal rate of 90% or more (almost completely withered)) | 0 (Herbicidal rate of 5% or less (almost no effect)) | 0 (Herbicidal rate of 5% or less (almost no effect)) | 5 (Herbicidal rate of 90% or more (almost completely withered)) | 4 (Herbicidal rate of 70% or more and less than 90%) | 5 (Herbicidal rate of 90% or more (almost completely withered)) | 5 (Herbicidal rate of 90% or more (almost completely withered)) |
| Cc1nn(C)c(=O)c(-c2c(-c3ccc(Cl)cc3F)sc3ccc(F)cc23)c1O [2-348] | 2 (Herbicidal rate of 20% or more and less than 40%) | 3 (Herbicidal rate of 40% or more and less than 70%) | 0 (Herbicidal rate of 5% or less (almost no effect)) | 0 (Herbicidal rate of 5% or less (almost no effect)) |  |  |  |  |  |  |  | 5 (Herbicidal rate of 90% or more (almost completely withered)) | 0 (Herbicidal rate of 5% or less (almost no effect)) | 0 (Herbicidal rate of 5% or less (almost no effect)) | 4 (Herbicidal rate of 70% or more and less than 90%) | 5 (Herbicidal rate of 90% or more (almost completely withered)) | 5 (Herbicidal rate of 90% or more (almost completely withered)) | 5 (Herbicidal rate of 90% or more (almost completely withered)) |
